Measured values taken from ChEMBL document CHEMBL6074713, “Chemical Synthesis and Antifibrotic Properties of (±)-Cochlearol T, (±)-Ganocochlearin A, and (±)-Cochlearol Y” (ACS Med Chem Lett, 2024).
Active and inactive are the calls of the source. The calls are words filed in the database; no cut-off is given here.

How the values were obtained:
HK-2 [1] = experiment: Anti-fibrotic activity in TGFbeta-1-treated HK-2 cells assessed as fibronectin mRNA level at 10 uM incubated for 24 to 48 hrs by qPCR analysis (reference value: 11.31 +/- 2.49); assay type: functional, Homo sapiens; details: time 24-48 hrs
HK-2 [2] = experiment: Anti-fibrotic activity in TGFbeta-1-treated HK-2 cells assessed as decrease in alpha-SMA level at 1 uM incubated for 24 to 48 hrs by Western blot analysis; assay type: functional, cell-based; details: Homo sapiens, time 24-48 hrs
HK-2 [3] = experiment: Anti-fibrotic activity in TGFbeta-1-treated HK-2 cells assessed as Col4A1 mRNA level at 10 uM incubated for 24 to 48 hrs by qPCR analysis (reference value: 2.54 +/- 0.24); assay type: functional, Homo sapiens; details: time 24-48 hrs
HK-2 [4] = experiment: Anti-fibrotic activity in TGFbeta-1-treated HK-2 cells assessed as vimentin mRNA level at 10 uM incubated for 24 to 48 hrs by qPCR analysis (reference value: 3.73 +/- 0.47); assay type: functional, Homo sapiens; details: time 24-48 hrs
HK-2 [5] = experiment: Anti-fibrotic activity in TGFbeta-1-treated HK-2 cells assessed as decrease in fibronectin level at 5 to 10 uM incubated for 24 to 48 hrs by Western blot analysis; assay type: functional, cell-based; details: Homo sapiens, dose 5-10 µM, time 24-48 hrs
HK-2 [6] = experiment: Anti-fibrotic activity in TGFbeta-1-treated HK-2 cells assessed as Col4A1 mRNA level at 10 uM incubated for 24 to 48 hrs by qPCR analysis (reference value: 2.35 +/- 0.38); assay type: functional, Homo sapiens; details: time 24-48 hrs
HK-2 [7] = experiment: Anti-fibrotic activity in TGFbeta-1-treated HK-2 cells assessed as decrease in vimentin level at 1 uM incubated for 24 to 48 hrs by Western blot analysis; assay type: functional, cell-based; details: Homo sapiens, time 24-48 hrs
HK-2 [8] = experiment: Anti-fibrotic activity in HK-2 cell model of 10 ng/ml TGFbeta-1-induced fibrosis injury assessed as Col4A1 mRNA level at 10 uM incubated for 24 to 48 hrs by qPCR analysis (reference value: 2.44 +/- 0.21); assay type: functional, Homo sapiens; details: time 24-48 hrs
HK-2 [9] = experiment: Anti-fibrotic activity in HK-2 cell model of 20 ng/ml TGFbeta-1-induced fibrosis injury assessed as vimentin mRNA level at 10 uM incubated for 24 to 48 hrs by qPCR analysis (reference value: 3.19 +/- 0.23); assay type: functional, Homo sapiens; details: time 24-48 hrs
HK-2 [10] = experiment: Anti-fibrotic activity in TGFbeta-1-treated HK-2 cells assessed as vimentin mRNA level at 10 uM incubated for 24 to 48 hrs by qPCR analysis (reference value: 1.88 +/- 0.48); assay type: functional, Homo sapiens; details: time 24-48 hrs
HK-2 [11] = experiment: Anti-fibrotic activity in TGFbeta-1-treated HK-2 cells assessed as fibronectin mRNA level at 10 uM incubated for 24 to 48 hrs by qPCR analysis (reference value: 6.88); assay type: functional, Homo sapiens; details: time 24-48 hrs
[12] = Cytotoxicity against TGFbeta-1-treated HK-2 cells assessed as cell viability at 10 uM incubated for 48 hrs by Cell Titer-Glo assay (Rvb ~ 80 %); assay type: toxicity, cell-based; details: human, read-out: Activity
HK-2 [13] = experiment: Anti-fibrotic activity in HK-2 cell model of 10 ng/ml TGFbeta-1-induced fibrosis injury assessed as vimentin mRNA level at 20 uM incubated for 24 to 48 hrs by qPCR analysis (reference value: 1.41 +/- 0.1); assay type: functional, Homo sapiens; details: time 24-48 hrs
HK-2 [14] = experiment: Anti-fibrotic activity in HK-2 cell model of 20 ng/ml TGFbeta-1-induced fibrosis injury assessed as Col4A1 mRNA level at 10 uM incubated for 24 to 48 hrs by qPCR analysis (reference value: 8.96 +/- 0.96); assay type: functional, Homo sapiens; details: time 24-48 hrs
HK-2 [15] = experiment: Anti-fibrotic activity in HK-2 cell model of 20 ng/ml TGFbeta-1-induced fibrosis injury assessed as vimentin mRNA level at 20 uM incubated for 24 to 48 hrs by qPCR analysis (reference value: 3.19 +/- 0.23); assay type: functional, Homo sapiens; details: time 24-48 hrs
HK-2 [16] = experiment: Anti-fibrotic activity in HK-2 cell model of 10 ng/ml TGFbeta-1-induced fibrosis injury assessed as vimentin mRNA level at 10 uM incubated for 24 to 48 hrs by qPCR analysis (reference value: 1.41 +/- 0.1); assay type: functional, Homo sapiens; details: time 24-48 hrs
HK-2 [17] = experiment: Cytotoxicity against TGFbeta-1-treated HK-2 cells assessed as decrease in cell viability at 1 to 5 uM incubated for 48 hrs by Cell Titer-Glo assay; assay type: toxicity, cell-based; details: human, hk-2, 48 h, dose 1-5 µM
HK-2 [18] = experiment: Anti-fibrotic activity in HK-2 cell model of 20 ng/ml TGFbeta-1-induced fibrosis injury assessed as Col4A1 mRNA level at 20 uM incubated for 24 to 48 hrs by qPCR analysis (reference value: 8.96 +/- 0.96); assay type: functional, Homo sapiens; details: time 24-48 hrs
HK-2 [19] = experiment: Anti-fibrotic activity in TGFbeta-1-treated HK-2 cells assessed as decrease in fibronectin level at 1 uM incubated for 24 to 48 hrs by Western blot analysis; assay type: functional, cell-based; details: Homo sapiens, time 24-48 hrs
HK-2 [20] = experiment: Anti-fibrotic activity in HK-2 cell model of 10 ng/ml TGFbeta-1-induced fibrosis injury assessed as Col4A1 mRNA level at 20 uM incubated for 24 to 48 hrs by qPCR analysis (reference value: 2.44 +/- 0.21); assay type: functional, Homo sapiens; details: time 24-48 hrs
HK-2 [21] = experiment: Anti-fibrotic activity in TGFbeta-1-treated HK-2 cells assessed as decrease in Col4A1 level at 1 uM incubated for 24 to 48 hrs by Western blot analysis; assay type: functional, cell-based; details: Homo sapiens, time 24-48 hrs
HK-2 [22] = experiment: Anti-fibrotic activity in TGFbeta-1-treated HK-2 cells assessed as decrease in Col4A1 mRNA level at 10 uM incubated for 24 to 48 hrs by qPCR analysis relative to control; assay type: functional, Homo sapiens; parameters: scale not given: the % may be the effect or the level left; details: time 24-48 hrs
HK-2 [23] = experiment: Anti-fibrotic activity in TGFbeta-1-treated HK-2 cells assessed as decrease in fibronectin mRNA level at 10 uM incubated for 24 to 48 hrs by qPCR analysis relative to control; assay type: functional, Homo sapiens; parameters: scale not given: the % may be the effect or the level left; details: time 24-48 hrs
HK-2 [24] = experiment: Anti-fibrotic activity in TGFbeta-1-treated HK-2 cells assessed as Col4A1 mRNA level at 10 uM incubated for 24 to 48 hrs by qPCR analysis (reference value: 2.81 +/- 0.22); assay type: functional, Homo sapiens; details: time 24-48 hrs
HK-2 [25] = experiment: Anti-fibrotic activity in TGFbeta-1-treated HK-2 cells assessed as vimentin mRNA level at 10 uM incubated for 24 to 48 hrs by qPCR analysis (reference value: 2.2 +/- 0.28); assay type: functional, Homo sapiens; details: time 24-48 hrs
HK-2 [26] = experiment: Anti-fibrotic activity in TGFbeta-1-treated HK-2 cells assessed as fibronectin mRNA level at 10 uM incubated for 24 to 48 hrs by qPCR analysis (reference value: 2.16 +/- 0.31); assay type: functional, Homo sapiens; details: time 24-48 hrs
HK-2 [27] = experiment: Anti-fibrotic activity in TGFbeta-1-treated HK-2 cells assessed as decrease in vimentin mRNA level at 10 uM incubated for 24 to 48 hrs by qPCR analysis relative to control; assay type: functional, Homo sapiens; parameters: scale not given: the % may be the effect or the level left; details: time 24-48 hrs
HK-2 [28] = experiment: Anti-fibrotic activity in TGFbeta-1-treated HK-2 cells assessed as decrease in alpha-SMA level at 5 to 10 uM incubated for 24 to 48 hrs by Western blot analysis; assay type: functional, cell-based; details: Homo sapiens, dose 5-10 µM, time 24-48 hrs
HK-2 [29] = experiment: Anti-fibrotic activity in TGFbeta-1-treated HK-2 cells assessed as decrease in vimentin level at 1 to 10 uM incubated for 24 to 48 hrs by Western blot analysis; assay type: functional, cell-based; details: Homo sapiens, dose 1-10 µM, time 24-48 hrs

With `CC(C)=CCC[C@]1(C)Oc2ccc(O)cc2C2=CC(=O)CC[C@H]21` (racemic) the Activity (HK-2 [1]) was 0.39, the Activity (HK-2 [2]) was “Active” and the Activity (HK-2 [3]) was 0.6. For the same compound, the Activity (HK-2 [4]) was 0.93 and the Activity (HK-2 [5]) was “Active”.
With `CC(C)=CCCC1(C)Oc2ccc(O)cc2-c2cc(O)ccc21` (racemic) the Activity (HK-2 [6]) was 0.66, the Activity (HK-2 [7]) was “Active” and the Activity (HK-2 [8]) was 0.74. For the same compound, the Activity (HK-2 [9]) was 1.44, the Activity (HK-2 [10]) was 0.65 and the Activity (HK-2 [11]) was 1. The viability at 48 h, 10 µM [12] was 70%, the Activity (HK-2 [13]) was 0.24 and the Activity (HK-2 [14]) was 4.08. For the same compound, the Activity (HK-2 [15]) was 0.5, the Activity (HK-2 [16]) was 0.54 and the Activity (HK-2 [17]) was “Non-toxic”. For the same compound, the Activity (HK-2 [18]) was 1.21, the Activity (HK-2 [19]) was “Active” and the Activity (HK-2 [20]) was 0.11. For the same compound, the Activity (HK-2 [21]) was “Active”.
For `CC(C)=CCC[C@]1(C)Oc2ccc(O)cc2C2=CC(=O)CC[C@@H]21` (racemic), the Activity (HK-2 [22]) was “<=50%”, the Activity (HK-2 [23]) was “<=50%” and the Activity (HK-2 [24]) was 1.1. The Activity (HK-2 [25]) was 1.22, the Activity (HK-2 [26]) was 0.6 and the Activity (HK-2 [27]) was “<=50%”. The Activity (HK-2 [28]) was “Active” and the Activity (HK-2 [29]) was “Active”.
